Data taken from a melting point compilation (Tetko et al.; mined from patent text by program, amines drawn as free bases though some values may be those of a salt).

Row | Structure (SMILES) | melting point [°C]
1 | CON=C1CN(c2c(F)cc3c(=O)c(C(=O)O)cn(C4CC4)c3c2F)CC12CNC2 | 205 to 207
2 | CC(CO)NC(=O)COc1ccc(CCNS(=O)(=O)c2ccccc2)cc1 (stereo unspecified) | 90 to 91
3 | COC(=O)C1(S(=O)(=O)N2CCC(c3ccc(Br)c(C)c3)CC2)CCOCC1 | 162 to 163
4 | Nc1nc(Cl)cc(-c2ccco2)n1 | 133 to 140
5 | CCN1CCN(C2=Nc3cc(Cl)ccc3Sc3ccccc32)CC1 | 100 to 101
6 | Cc1nccn1CCN1CCC(Nc2nc3ccccc3n2Cc2ccc(F)cc2)CC1 | 170
7 | Cc1cccc(NC(=O)NCC(=O)N(CC(=O)Oc2ccccc2)c2ccccc2)c1 | 206
8 | C#CCNC1=Nc2ccc(Cl)cc2C(c2ccccc2)=NC1 | 202
9 | COc1cc2c(cc1OC)C1Cc3ccccc3CC(=O)N1CC2 (stereo unspecified) | 195 to 197
10 | COc1ccc(CCOC(=O)NC(=O)C(c2ccccc2)c2ccccc2)cc1OC | 144
11 | COc1cc(N(C)C)c(Cl)cc1C(=O)NCC1CN(Cc2ccc(C#N)cc2)CCO1 (stereo unspecified) | 161 to 163
12 | CC(=O)SC[C@@H](C(=O)N[C@H](CC(C)C)c1nnn[nH]1)C(F)(F)F | 180 to 184
13 | CC(=O)N(C)c1ccc(N(CCCCN(c2ccc(N(C)C(C)=O)cc2)S(=O)(=O)c2ccccc2)S(=O)(=O)c2ccccc2)cc1 | 235
14 | C[C@H](CNc1nc(Cl)nc2c1ncn2[C@@H]1O[C@H](CO)[C@@H](O)[C@H]1O)Oc1ccccc1 | 175 to 177
15 | Cc1ccc(S(=O)(=O)OCC(=O)CC2CCC(C)CC2)cc1 (stereo unspecified) | 42 to 43.5
16 | Cc1oc(-c2ccccc2)nc1COc1ccc(COc2ncccc2C#N)cn1 | 117 to 118
17 | CC(C)(C)C=C[C@H](O)c1ccc(F)cc1 | 38 to 40
18 | O=C(CCC1C(=S)Nc2ccccc21)NCc1ccccc1 (stereo unspecified) | 114
19 | COc1ccc(C=CC(=O)N2CCc3c([nH]c4ccccc34)C2c2ccc3c(c2)OCO3)cc1O (stereo unspecified) | 213
20 | COC(=O)c1ccc(Cn2c(=O)c3cc(C#CCc4ccc(OC)cc4)ccc3n3cnnc23)cc1 | 249
21 | CONC(=O)CC1=C(C)/C(=C/c2ccc(S(C)=O)cc2)c2ccc(F)cc21 (stereo unspecified) | 177 to 179
22 | Cc1cc(C(C)(C)C)c(O)c(C)c1CC(=O)O | 161 to 165
23 | CN1C(=O)[C@H](NC(=O)/C=C/c2ccc(I)cc2)N=C(c2ccccc2)c2ccccc21 | 137 to 140
24 | CC(=O)Oc1cccc(CCNC(=O)/C=C/c2cccnc2)c1 | 99

Row | Structure (SMILES) | melting point [°C]
25 | COc1c(C2CCN(CCCCNC(=O)c3sc(-c4ccc(Cl)cc4)nc3CO)CC2)ccc2c1CCCC2 | 198 to 200
26 | O=C(Cc1cccnc1)c1ccc2c(c1)CCC2 | 55 to 56
27 | CC1(C)CCc2cc(O)c(O)cc2C1=O | 163 to 165
28 | CCC(CC)COc1c(C)nc(N)nc1N | 142 to 143
29 | CC(=O)Oc1cnccc1CCCOc1cccnc1Oc1ccccc1 | 79 to 80
30 | Cc1cn(C2(C(=O)N(C)C)CC2)nc1-c1ccccc1 | 52 to 55
31 | O=C1C2=C(SCCO2)C(O)N1c1ccc(Cl)cn1 (stereo unspecified) | 202
32 | O=C(O)CC1c2ccccc2CCN1S(=O)(=O)c1ccc2ccccc2c1 (stereo unspecified) | 132
33 | CCOC(=O)c1cc(O)cc2cc(-c3ccc(O)cc3)oc12 | 221 to 223
34 | CC(C)C[C@H](NC(=O)OCC1CCCCC1)C(=O)N[C@@H](CC(C)C)C(=O)N[C@@H](C(C)C)[C@@H](O)c1c(-c2ccccc2)c1=O | 109 to 116
35 | Cc1nn(C)c(C(=O)C(C#N)c2ccc(C(C)(C)C)cc2)c1C (stereo unspecified) | 178
36 | N#CCCNC(=O)c1cccc(-c2cccc(Oc3cncc(Cl)c3)n2)c1 | 143 to 144
37 | CC(C)c1nn(-c2ccc(C#N)nn2)cc1CCCO | 140 to 141
38 | COCCNc1c(N)cc(C(=O)O)cc1S(N)(=O)=O | 209 to 211
39 | NC(=O)N1CCN(CC(O)COc2ccc(O)cc2)CC1 (stereo unspecified) | 198 to 201
40 | COCc1ccc(-c2ncccc2C#N)cc1 | 74
41 | O=C(O)C(Oc1ccc(Cl)cc1)(C(F)(F)F)C(F)(F)F | 81 to 83
42 | Cn1c(=O)cc(-c2nc(-c3ccccc3)cs2)c2cc(C(O)c3ccc(Cl)cc3)ccc21 (stereo unspecified) | 192
43 | CCOC(=O)c1cc(-c2csc(C(=O)OCC)n2)[nH]n1 | 104 to 106
44 | CC(=O)Oc1ccc(C2=COc3ccccc3O2)cc1 | 123 to 125
45 | CC12CCC3c4ccc(OCc5ccccc5)c(N)c4CCC3C1CCC2=O (stereo unspecified) | 219 to 221
46 | CN(Cc1cccs1)C(=O)C1CC2C=CC1C2 (stereo unspecified) | 74 to 75
47 | c1ccc(COc2cccn3ccnc23)cc1 | 110
48 | CC(C)S(=O)(=O)C(C#N)=C(Nc1cc(C(F)(F)F)cc(C(F)(F)F)c1)NC1CCCC1 | 172 to 173

Row | Structure (SMILES) | melting point [°C]
49 | O=C(NC1CCCCC1)OC1c2nccnc2C(=O)N1c1ccc2ccc(Cl)nc2n1 (stereo unspecified) | 264
50 | C[C@@H](S[C@H]1CO[C@H](c2ccc(C(=O)Nc3ccncc3)cc2)OC1)[C@](O)(Cn1cncn1)c1ccc(F)cc1F | 133
51 | CCN(CC)c1ccc(Nc2nc(N)c(C(=O)c3ccccc3[N+](=O)[O-])s2)cc1 | 202 to 205
52 | Cn1nc(C(=O)NCc2ccc(Cl)cc2)c(=O)c2cc(CN3CCOCC3)ccc21 | 190 to 192
53 | COc1ccc2cc([C@H](C)C(=O)OCC(C)(CO)CO)ccc2c1 | 105
54 | O=Cc1c2cccc(Cl)c2c(Cl)c2c(Cl)cccc12 | 118 to 120
55 | NNC(=O)OCCOc1ccc(C(=O)c2ccccc2)c(O)c1 | 58 to 61
56 | COc1c(C)c(C)c2c(c1C)C(c1ccc(CCCCCCC(=O)O)cc1)C(C)(C)O2 (stereo unspecified) | 88 to 89
57 | CC(CNC(=O)c1ccc(Oc2ccc(F)cc2)o1)N(O)C(N)=O (stereo unspecified) | 180 to 181
58 | CC1CC(=O)NN=C1c1ccc(-n2cccc2)nc1 (stereo unspecified) | 192 to 193
59 | O=Cc1ccc(-c2cccc3cncn23)cc1 | 144 to 146
60 | CC(=O)NCc1ccc2ccn(C3CCN(CCc4ccc(Br)cc4)CC3)c2c1 | 140 to 141
61 | COCc1c(C=C(Br)Br)ncc2c1c1c(OCc3ccccc3)cccc1n2S(=O)(=O)c1ccc(C)cc1 | 149 to 152
62 | Nc1nc2c(ncn2CCC(COCc2ccccc2)COCc2ccccc2)c(=O)[nH]1 | 210 to 224
63 | COC(=O)C=CC=Cc1cc([N+](=O)[O-])ccc1Cl | 132
64 | CCOC(=O)N(C)S(=O)(=O)c1cc2c(c(Cl)c1Cl)OC(C(=O)O)C2 (stereo unspecified) | 199 to 201
65 | CCN(CC)CCOC(=O)c1ccc(/C=C(\C)c2ccc3c(c2)C(C)(C)CCC3(C)C)cc1 | 65 to 66
66 | CN(C)C(=O)C(C)(C)c1ccccc1 | 57 to 59
67 | CCn1nc(O)nc1Cl | 108 to 110
68 | CC1(C)CNc2cc3[nH]c(-c4cccnc4)nc3cc21 | 213 to 215
69 | CCCN(C(C)C)[C@H]1COc2c(F)ccc(C(N)=O)c2C1 | 139 to 140
70 | CCOCc1cnc2c([N+](=O)[O-])cccc2c1Cl | 110 to 126
71 | Cn1c(=O)n(CCC[C@@H](NS(=O)(=O)c2ccc(-c3ccccc3)cc2)C(=O)O)c(=O)c2ccccc21 | 222 to 224
